We go through eleven compounds from article PMC1885804, “Preferential inhibition of xanthine oxidase by 2-amino-6-hydroxy-8-mercaptopurine and 2-amino-6-purine thiol” (BMC Biochemistry, 2007).

Where two headings read alike, the source gives them in different places.

Series [1] addresses T1, XOD (Bos taurus, UniProt P80457).
Details of series [2]: method as in doi:10.1016/0006-2952(63)90012-1, doi:10.1016/0002-9343(66)90118-5, PMID 14070377. As to conditions: combination with 6MP; cited from earlier work.
The target of series [3] is T2, bovine XOD (Bos taurus, UniProt P80457).
T2 construct: Bovine milk XOD was procured from Calbiochem (La Jolla, CA, USA); purchased Calbiochem (La Jolla, CA, USA); host or cells: bovine milk
T2 sequence (P80457 whole entry): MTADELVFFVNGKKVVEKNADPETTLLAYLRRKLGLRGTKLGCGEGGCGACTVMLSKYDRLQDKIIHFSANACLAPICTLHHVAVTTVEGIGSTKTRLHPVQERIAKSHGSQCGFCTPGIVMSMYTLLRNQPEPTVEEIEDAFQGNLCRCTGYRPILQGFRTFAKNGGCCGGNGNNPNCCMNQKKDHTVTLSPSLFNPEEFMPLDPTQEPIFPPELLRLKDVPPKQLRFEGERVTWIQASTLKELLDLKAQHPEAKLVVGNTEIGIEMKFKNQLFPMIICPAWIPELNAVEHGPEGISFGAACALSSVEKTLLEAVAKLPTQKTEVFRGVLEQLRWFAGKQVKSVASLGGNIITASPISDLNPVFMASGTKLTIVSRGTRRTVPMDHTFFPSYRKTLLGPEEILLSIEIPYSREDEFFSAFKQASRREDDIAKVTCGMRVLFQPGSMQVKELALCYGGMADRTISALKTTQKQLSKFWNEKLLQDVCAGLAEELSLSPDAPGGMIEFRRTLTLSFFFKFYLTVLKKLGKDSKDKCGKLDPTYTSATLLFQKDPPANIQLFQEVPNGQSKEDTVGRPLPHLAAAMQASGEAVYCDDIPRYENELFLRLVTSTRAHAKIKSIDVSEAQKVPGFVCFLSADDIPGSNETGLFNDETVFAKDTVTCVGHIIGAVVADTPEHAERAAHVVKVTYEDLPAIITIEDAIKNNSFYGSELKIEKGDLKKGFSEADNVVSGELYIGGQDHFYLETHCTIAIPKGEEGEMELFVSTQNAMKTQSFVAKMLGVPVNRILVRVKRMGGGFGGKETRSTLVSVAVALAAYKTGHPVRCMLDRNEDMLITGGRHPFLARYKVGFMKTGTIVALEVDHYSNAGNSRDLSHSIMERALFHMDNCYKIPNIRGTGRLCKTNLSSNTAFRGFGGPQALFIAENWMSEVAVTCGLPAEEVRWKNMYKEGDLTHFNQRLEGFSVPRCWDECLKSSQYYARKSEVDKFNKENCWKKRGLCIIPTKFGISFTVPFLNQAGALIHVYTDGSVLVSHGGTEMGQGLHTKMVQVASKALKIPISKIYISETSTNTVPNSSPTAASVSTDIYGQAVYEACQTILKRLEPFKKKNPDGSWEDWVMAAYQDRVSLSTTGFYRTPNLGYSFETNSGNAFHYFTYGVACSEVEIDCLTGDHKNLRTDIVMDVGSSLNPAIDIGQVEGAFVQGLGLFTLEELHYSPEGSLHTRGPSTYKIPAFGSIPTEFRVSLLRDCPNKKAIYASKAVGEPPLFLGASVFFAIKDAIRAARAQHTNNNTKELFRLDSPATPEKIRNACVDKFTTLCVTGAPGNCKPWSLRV
Description: In vitro bi-substrate (xanthine + 6MP) simulative experiment, percent residual XOD activity. In kind it is biochemical. Particulars: for Inhibition of 6MP hydroxylation, bi-substrate reaction / Inhibition of xanthine hydroxylation, bi-substrate reaction: observed for 20 min. The procedure: Percent residual activity for generation of uric acid and 6TUA was determined in the presence of various concentrations of AHMP, APT and allopurinol (Table 2). […] Absorption spectra of the time dependent XOD-mediated bi-substrate reaction in the presence of APT and AHMP are depicted in Figure 4 and Figure 5, respectively.
(§1) Percent residual activity of formation of uric acid and 6TUA was determined by subtracting the percentage inhibition from 100%. […] Km and kcat were determined in the absence of the inhibitors.

Series [4] concerns swiss male mice. Description: Single dose acute toxicity study, fourteen days observation. Type of series: in vivo. The procedure:
In order to evaluate the toxicity of the preferential inhibitors of XOD, the single dose acute toxicity study was performed for both the preferential inhibitors on swiss male mice following a fourteen days observation period. The body weight of the animal ranged from 25–30 gm. […] Gross necropsy of each animal of all groups was conducted and organ weight was recorded after the termination of the study.

Series [5] deals with T2, bovine XOD. Description: IC50 determination, XOD-catalyzed hydroxylation (uric acid at 293 nm, 6TUA at 350 nm). Type of series: biochemical. Particulars: for IC50: 2.8 U/ml bovine XOD, ± SEM. The procedure:
One enzyme unit is defined as amount of enzyme required to produce 1 μM uric acid per min per ml reaction mixture from 10 μM of xanthine at 30°C, pH 7.4.
The IC50 values were determined for all the purine and pyrazolopyrimidine-based compounds. […] GRAFIT software procured from Erithacus Software Limited, UK, written by Dr R.J. Leatherbarrow, was employed for calculating the IC50 values.

The target of series [6] is T2, bovine XOD. Description: Steady-state kinetics of XOD (Michaelis Menten and Lineweaver Burk plots). Type of series: biochemical. The method, then: The double reciprocal Lineweaver Burk (LB) plots were drawn to find the mechanism of inhibition of XOD by APT and AHMP (Figure 6, 7, 8, 9).
as §1
For competitive inhibition,
-1/Km app = -1/Km (1+ [I]/Ki)
For non-competitive inhibition,
1/Vmax app = (1+ [I]/Ki)/Vmax
The modified LB equation for the mixed inhibition is
1/v = 1/Vmax app + […]/Vmax app [S]0
where, Km app and Vmax app are defined by equations (4) and (5).
Km app = Km {1+([I0]/Ki)}/{1+ ([I0]/KI)}
Vmax app = Vmax/{1+ ([I0]/KI)}
Km app is the apparent Michaelis constant and Vmax app is the apparent maximum velocity of the reaction of XOD with its substrates. Ki and KI are the inhibition constants of the inhibitors.

Series [7] concerns the target T1, XOD. More on the design: Bovine milk XOD was procured from Calbiochem (La Jolla, CA, USA); purchased Calbiochem (La Jolla, CA, USA); host or cells: bovine milk. As to conditions: cited from earlier work.
The subject of series [8] is XOD and XDH. More on the design: method as in doi:10.1016/0006-2952(63)90012-1. As to conditions: at doses that produced significant toxic effects; cited from earlier work.
In series [9] the target is T1, XOD. Description: In vitro tri-substrate (hypoxanthine, xanthine, 6MP) simulative study. Also on record: Bovine milk XOD was procured from Calbiochem (La Jolla, CA, USA); purchased Calbiochem (La Jolla, CA, USA); host or cells: bovine milk. As to conditions: xanthine and 6MP together, data not shown. Type of series: biochemical.
[10] abbreviates: read-out: % Activity with 6MP as substrate.
Setting [11] is: read-out: % Activity with xanthine as substrate.
[12] abbreviates: single dose 2.5, 5, 10 mg/kg intravenously, mice, fourteen days.
Where [13] appears, read: 10 μM hypoxanthine, 0.2 M sodium phosphate buffer pH 7.4, read-out: IC50, XOD inhibition, substrate hypoxanthine.
The mark [14] stands for this setting: 10 μM xanthine, pH 7.4, read-out: IC50, XOD inhibition, substrate xanthine (xanthine to uric acid).
Where [15] appears, read: read-out: % Activity with xanthine as substrate (converted).
Where [16] appears, read: IC50, XOD inhibition, substrate 6MP (6MP to 6TUA), 10 μM 6MP, pH 7.4, 60 min reaction.
[17] abbreviates: substrate 6MP, read-out: Ki (competitive inhibition constant; Ki^1 for APT, Ki^2 for AHMP).
The mark [18] stands for this setting: substrate xanthine, read-out: Ki (competitive inhibition constant; Ki^1 for APT, Ki^2 for AHMP).
The mark [19] stands for this setting: single dose 2.5, 5, 10 mg/kg intravenously, mice.

T1 sequence (P80457 whole entry): as above

As to `Oc1ncnc2[nH]ncc12` [ALLOPURINOL, allopurinol], in series [1], the “Substrate-induced enzymatic electron transfer / ROS generation on interaction with XOD” value is reported as “led to substrate-induced enzymatic electron transfer via DCPIP”. Moreover, the “Potentiation of the antitumor and immunosuppressive properties of 6MP” value in series [2] was “three to four”. Besides, in series [3] (setting [10]), the activity at 0.5 µM was 83 ± 1.05%, the activity at 1 µM is 48% and the activity at 2.5 µM was 16%. For the same compound, in [3] (setting [11]), the activity at 0.5 µM is 95 ± 1.09%, the activity at 1 µM is 68% and the activity at 2.5 µM is 30%. For the same compound, in [4] (mouse, in vivo), the Gross necropsy result was “no changes in vital organs” and the “Organ weight as compared with the control groups” value is reported as “No difference in organ weight”. Further, in series [4] (setting [12]), the Mortality entry was “no mortality”.

On to `O=C(Nc1ncnc2nc[nH]c12)c1ccccc1` [6-(N-benzoylamino)purine], for which the “Preferential inhibition of the 6MP hydroxylation over xanthine” value in series [5] is on record as “did not exhibit any preferential inhibition”.

As to `Sc1ncnc2nc[nH]c12` [6MP, 6-mercaptopurine], the “Vmax (maximum reaction velocity)” value in series [6] came to 2.85 ± 0.02 µM/min.

For orientation: IC50 means the concentration needed to halve the response being measured. Consider `Nc1ncnc2[nH]ncc12` [APP, 4-aminopyrazolo 3,4-d pyrimidine], for which the “Preferential inhibition of the 6MP hydroxylation over xanthine” value in series [5] is given as “did not exhibit any preferential inhibition”. Also, the concentration for half-maximal inhibition (IC50) in [5] (setting [13]) was found to be 6.79 ± 0.28 µM; in series [5] (setting [14]), 20.8 ± 0.84 µM; in [5] (read-out: IC50, XOD inhibition, substrate 6MP (6MP to 6TUA), 10 μM 6MP, pH 7.4, 60 min reaction), 12.9 ± 0.69 µM.

Consider `O=c1c(O)c(-c2ccccc2)oc2cc(O)cc(O)c12` [Galagin], for which the “Type of XOD inhibition” value in [7] is reported as “mixed type of inhibition”.

On to `O=c1c(O)c(-c2ccc(O)cc2O)oc2cc(O)cc(O)c12` [Morin], for which, in series [7], the “Type of XOD inhibition” value is “mixed type of inhibition”.

Regarding `NNC(N)=O` [semicarbazide], the “Inhibition of XOD and XDH in vivo” value in series [8] is recorded as “less than 50%”.

Turning to `O=c1[nH]c(=O)c2nc[nH]c2[nH]1` [Xanthine, xanthine], the “Vmax (maximum reaction velocity)” value in [6] was 114.54 ± 0.24 µM/min.

Broadly, the Ki is the dissociation constant of the complex between target and ligand, obtained from inhibition or displacement. With `Nc1nc2nc[nH]c2c(=S)[nH]1` [APT, 2-amino-6-purinethiol], the “Discriminatory inhibition in tri-substrate simulative study” value in series [9] was “discriminatory inhibition of the 6MP to 6TUA conversion and not hypoxanthine to uric acid conversion”. In addition, in series [3] (inhibitor 5 μM), the “Inhibition of 6MP hydroxylation, bi-substrate reaction” value was “Almost complete inhibition”. For the same compound, the “Inhibition of xanthine hydroxylation, bi-substrate reaction” value in series [3] (inhibitor 5 μM) is on record as “little inhibition”. The activity at 0.5 µM in series [3] (setting [10]) is 73 ± 2.5%; in series [3] (setting [11]), 96 ± 1%. Besides, the activity at 1 µM in series [3] (setting [10]) is 66%; in series [3] (setting [15]), 90%. For the same compound, the activity at 2.5 µM in series [3] (setting [10]) was 25%; in series [3] (setting [15]), 80%. Moreover, in series [4] (mouse, in vivo), the Gross necropsy result was “no changes in vital organs”. The “Organ weight as compared with the control groups” value in [4] (mouse, in vivo) is reported as “No difference in organ weight”. For the same compound, the Mortality entry in [4] (setting [12]) is recorded as “no mortality”. Besides, in series [5], the “Difference in the IC50 value in the first and the late phases” value was “no such difference”. Also, the “Whether the compound is an XOD substrate” value in series [5] is “none were found to be XOD substrates”. Moreover, the figures for the IC50 in series [5] (setting [13]), in [5] (setting [14]) and in series [5] (setting [16]) were 7.28 ± 0.17 µM, 16.4 ± 0.21 µM and 2.57 ± 0.08 µM, respectively. In addition, the values for the Mechanism of inhibition result in series [6] (substrate 6MP) and in series [6] (substrate xanthine) were “competitive inhibition mechanism” and “Competitive”, respectively. Moreover, the results for the Ki in series [6] (setting [17]) and in series [6] (setting [18]) were 1.3 ± 0.09 µM and 6.61 ± 0.28 µM, respectively.

Consider `COc1cc(-c2cnn3c(=O)nc[n-]c23)ccc1[S+]([O-])c1ccccc1.[Na+]` (stereo not drawn) [BOF-4272], for which, in series [7], the “Type of XOD inhibition” value is “mixed type of inhibition”.

For the compound `Nc1nc2[nH]c(S)nc2c(=O)[nH]1` [AHMP, 2-amino-6-hydroxy-8-mercaptopurine], the “Discriminatory inhibition in tri-substrate simulative study” value in [9] was “discriminatory inhibition of the 6MP to 6TUA conversion and not hypoxanthine to uric acid conversion”. Further, the “Inhibition of 6MP hydroxylation, bi-substrate reaction” value in series [3] (inhibitor 2 μM) was “Almost complete inhibition”. Further, the “Inhibition of xanthine hydroxylation, bi-substrate reaction” value in series [3] (inhibitor 2 μM) is on record as “little inhibition”. Further, the activity at 0.5 µM in [3] (setting [10]) was 59 ± 4.01%; in series [3] (setting [11]) it was 90 ± 1.09%. The activity at 1 µM is 47% in series [3] (setting [10]) and 85% in series [3] (setting [15]). Further, the activity at 2.5 µM in series [3] (setting [10]) is 18%; in series [3] (setting [15]) it was 64%. The Gross necropsy entry in series [4] (after termination of the study) is recorded as “no changes in vital organs”. Moreover, the “Organ weight as compared with the control groups” value in series [4] (after termination of the study) is “No difference in organ weight”. For the same compound, the “Food intake as compared to allopurinol treated groups” value in series [4] (setting [19]) is given as “marginally less”. In series [4] (setting [19]), the “Weekly food intake as compared to vehicle treated groups” value is reported as “decreased”. Moreover, the “Changes in the initial and final body weight” value in series [4] (setting [12]) is given as “No significant changes”. Further, in series [4] (setting [12]), the General behavioral toxicity result was “No differences in general behavioral toxicity”. In addition, the “Difference in the IC50 value in the first and the late phases” value in series [5] is given as “no such difference”. In [5], the “Whether the compound is an XOD substrate” value is “none were found to be XOD substrates”. The 50% inhibitory concentration (IC50) came out at 5.08 ± 0.04 µM in series [5] (setting [13]), 17.7 ± 0.29 µM in series [5] (setting [14]) and 0.54 ± 0.01 µM in [5] (setting [16]). Besides, the Mechanism of inhibition result in series [6] (substrate 6MP) was “mixed inhibition mechanism”; in series [6] (substrate xanthine) it was “mixed type of inhibition”. Moreover, the Ki was 0.98 µM in series [6] (substrate 6MP, read-out: KI^2 (non-competitive inhibition constant) (converted)); 0.96 ± 0.01 µM in series [6] (setting [17]); 6.24 µM in series [6] (substrate xanthine, read-out: KI^2 (non-competitive inhibition constant) (converted)); 5.78 ± 0.48 µM in series [6] (setting [18]).
